Test results taken from patent US11484607B2, “PSMA-targeted NIR dyes and their uses” (On Target Laboratories, LLC, priority 2015, dated 2022).

Key:
[1] = system: 22Rv1 human prostate tumor xenograft; assay: Time dependent whole-body fluorescence imaging of DUPA-NIR conjugates, IVIS imager; type: in vivo, mouse; conditions: 6 or 20 nmol, imaged at different time intervals
Description: 22Rv1 human prostate tumor xenograft bearing mouse was injected with 20 nmol of 15 and imaged with IVIS imager (ex=745 nm, em=ICG, exposure time=1 s) at different time intervals.
22Rv1 human prostate tumor xenograft bearing mouse was injected with 20 nmol of 23 and imaged with IVIS imager (ex=745 nm, em=ICG, exposure time=1 s) at different time intervals.
22Rv1 human prostate tumor xenograft bearing mouse was injected with 20 nmol of 25 and imaged with IVIS imager (ex=745 nm, em=ICG, exposure time=1 s) at different time intervals
22Rv1 human prostate tumor xenograft bearing mouse was injected with 6 nmol of 35 and imaged with IVIS imager (ex=745 nm, em=ICG, exposure time=1 s) at different time intervals.
22Rv1 human prostate tumor xenograft bearing mouse was injected with 6 nmol of 36 and imaged with IVIS imager (ex=745 nm, em=ICG, exposure time=1 s) at different time intervals.
22Rv1 human prostate tumor xenograft bearing mouse was injected with 20 nmol of 39 and imaged with IVIS imager (ex=745 nm, em=ICG, exposure time=1 s) at different time intervals.
22Rv1 human prostate tumor xenograft bearing mouse was injected with 20 nmol of 40 and imaged with IVIS imager (ex=745 nm, em=ICG, exposure time=1 s) at different time intervals.
22Rv1 human prostate tumor xenograft bearing mouse was injected with 20 nmol of 41 and imaged with IVIS imager (ex=745 nm, em=ICG, exposure time=1 s) at different time intervals.
FIG. 25: Overlay of whole body or half body fluorescence image over white light images after adjusting the threshold. 22Rv1 human prostate tumor xenograft bearing mouse was injected with 20 nmol of 54 and imaged with IVIS imager (ex=745 nm, em=ICG, exposure time=1 s) at different time intervals.
22Rv1 human prostate tumor xenograft bearing mouse was injected with 20 nmol of 55 and imaged with IVIS imager (ex=745 nm, em=ICG, exposure time=1 s) at different time intervals.
22Rv1 human prostate tumor xenograft bearing mouse was injected with 20 nmol of 56 and imaged with IVIS imager (ex=745 nm, em=ICG, exposure time=1 s) at different time intervals.
22Rv1 human prostate tumor xenograft bearing mouse was injected with 20 nmol of 57 and imaged with IVIS imager (ex=745 nm, em=ICG, exposure time=1 s) at different time intervals
22Rv1 human prostate tumor xenograft bearing mouse was injected with 20 nmol of 58 and imaged with IVIS imager (ex=745 nm, em=ICG, exposure time=1 s) at different time intervals
22Rv1 human prostate tumor xenograft bearing mouse was injected with 20 nmol of 60 and imaged with IVIS imager (ex=745 nm, em=ICG, exposure time=1 s) at different time intervals.
in vivo studies. […] 22Rv1 human prostate tumor xenograft bearing mouse was injected with 20 nmol of 63 and imaged with IVIS imager (ex=745 nm, em=ICG, exposure time=1 s) at different time intervals.
22Rv1 human prostate tumor xenograft bearing mouse was injected with 6 nmol of 63 and imaged with IVIS imager (ex=745 nm, em=ICG, exposure time=1 s) at different time intervals.
22Rv1 human prostate tumor xenograft bearing mouse was injected with 20 nmol of 64 and imaged with IVIS imager (ex=745 nm, em=ICG, exposure time=1 s) at different time intervals.
22Rv1 human prostate tumor xenograft bearing mouse was injected with 6 nmol of 15 and imaged with IVIS imager (ex=745 nm, em=ICG, exposure time=1 s) at different time intervals.

PSMA = biological target: T1, PSMA (Homo sapiens, UniProt Q04609); assay: Relative binding affinity of DUPA-NIR conjugates with respect to DUPA-FITC on 22Rv1 cells, flow cytometry; conditions: for affinity for PSMA (in words): in vitro binding affinity data; for Kd: conjugates with variable length spacers, 1 h at 37° C., 100 nM DUPA-FITC
T1 construct: host or cells: 22Rv1 human prostate cancer cells
T1 sequence (Q04609 whole entry): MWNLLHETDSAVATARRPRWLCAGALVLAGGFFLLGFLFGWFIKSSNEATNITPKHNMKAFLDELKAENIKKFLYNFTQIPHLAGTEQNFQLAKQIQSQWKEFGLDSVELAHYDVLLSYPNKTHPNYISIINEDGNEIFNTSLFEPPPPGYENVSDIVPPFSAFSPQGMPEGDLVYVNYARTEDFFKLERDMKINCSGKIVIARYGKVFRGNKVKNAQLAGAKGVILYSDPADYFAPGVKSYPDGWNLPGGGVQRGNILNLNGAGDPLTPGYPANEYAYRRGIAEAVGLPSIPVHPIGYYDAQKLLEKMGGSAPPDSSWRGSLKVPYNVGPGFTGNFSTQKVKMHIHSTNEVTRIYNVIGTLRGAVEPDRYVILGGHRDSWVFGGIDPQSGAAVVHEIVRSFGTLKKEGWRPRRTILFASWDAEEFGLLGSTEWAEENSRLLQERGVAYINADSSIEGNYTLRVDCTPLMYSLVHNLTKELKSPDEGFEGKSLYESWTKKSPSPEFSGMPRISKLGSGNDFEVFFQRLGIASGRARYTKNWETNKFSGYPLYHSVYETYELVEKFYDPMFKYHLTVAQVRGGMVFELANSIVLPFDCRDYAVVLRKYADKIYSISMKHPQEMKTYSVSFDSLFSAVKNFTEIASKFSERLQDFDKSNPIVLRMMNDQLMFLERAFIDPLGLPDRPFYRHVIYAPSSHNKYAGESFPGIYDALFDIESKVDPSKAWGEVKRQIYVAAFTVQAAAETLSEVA
Description: (§1) FIG. 3—Relative binding affinities of DUPA-NIR conjugates 1-9 with respect to DUPA-FITC (14). PSMA-positive 22Rv1 human prostate cancer cells were incubated for 1 h at 37° C. in the presence of 100 nM DUPA-FITC with increasing concentrations of DUPA-NIR conjugates. […] Cell bound fluorescence was assayed as using flow cytometry.
as §1, with “6—Relative” for “3—Relative”, “with aromatic amino acids linkers” for “1-9”
as §1, with “3 Relative” for “3—Relative”
in vitro studies. […] PSMA-positive 22Rv1 human prostate cancer cells were incubated for 1 h at 37° C. in the presence of 100 nM DUPA-FITC with increasing concentrations of DUPA-NIR conjugates. […] Cell bound fluorescence was assayed as using flow cytometry.
PSMA-positive 22Rv1 human prostate cancer cells were incubated for 1 h at 37° C. in the presence of 100 nM DUPA-FITC with increasing concentrations of DUPA-NIR conjugates. […] Cell bound fluorescence was assayed as using flow cytometry.
as §1, with “24: Relative” for “3—Relative”, “conjugates” for “conjugates 1-9”
PSMA-positive 22Rv1 human prostate cancer cells were incubated for 1 h at 37° C. in the presence of 100 nM DUPA-FITC with increasing concentrations of DUPA-NIR conjugates. […] Cell bound fluorescence was assayed as using flow cytometry
Cancer cells were incubated for 1 h at 37° C. in the presence of 100 nM DUPA-FITC with increasing concentrations of compound 15. […] Cell bound fluorescence was assayed as using flow cytometry.

[2] = system: human prostate tumor xenografts (22Rv1 cells); assay: Tissue biodistribution and tumor-to-tissue fluorescence ratio of DUPA-NIR conjugates, IVIS imaging; type: in vivo, mice; conditions: 2 h after tail vein injection
Description: In vivo studies. More specifically, biodistribution of DUPA-NIR conjugates 1-9 was monitored using fluorescence imaging of mice bearing human prostate tumor xenografts (22Rv1 cells). Male nude mice with 22Rv1 tumor xenografts were injected with DUPA-NIR dye conjugates via tail vein. The mice were euthanized 2 h after administration of the DUPA-NIR dye conjugate, selected tissues were harvested, and tissues were imaged with IVIS imager (ex=745 nm, em=ICG, exposure time=1 s).
The conjugates were also tested to show the ratio of tumor-to-tissue fluorescence. […] After imaging, fluorescence within a Region of interest (ROI) was measured for each tissue using In Vivo imaging software and tumor-to-tissue fluorescence was then calculated
(§2) in vivo studies. […] Male nude mice with 22Rv1 tumor xenografts were injected with DUPA-NIR dye conjugates via tail vein. The mice were euthanized 2 h after administration of the DUPA-NIR dye conjugate, selected tissues were harvested, and tissues were imaged with IVIS imager (ex=745 nm, em=ICG, exposure time=1 s). After imaging, fluorescence within a Region of interest (ROI) was measured for each tissue using In Vivo imaging software and tumor-to-tissue fluorescence was then calculated.
Male nude mice with 22Rv1 tumor xenografts were injected with DUPA-NIR dye conjugates via tail vein. The mice were euthanized 2 h after administration of the DUPA-NIR dye conjugate, selected tissues were harvested, and tissues were imaged with IVIS imager (ex=745 nm, em=ICG, exposure time=1 s). After imaging, fluorescence within a Region of interest (ROI) was measured for each tissue using In Vivo imaging software and tumor-to-tissue fluorescence was then calculated.
as §2, with “In vivo” for “in vivo”

basophils = assay: Basophil activation test (Flow CAST) in human blood samples; type: cell-based
Description: Tolerability Studies: The blood samples were collected into hirudin tubes and used within an hour of collection. For each donor, 4 different tubes were prepared for allergen, positive controls, and negative control. Samples were analyzed using Flow CAST® high sensitivity Basophil Activation Test (BAT). Briefly, stimulation buffer (100 μL, background) or anti-FcεER antibody (100 μL) or fMLP (100 μL) or OTL78 (75 μM in 100 μL of saline) was added to tubes containing stimulation buffer (200 μL). 100 μL of blood was added to each tube and mixed gently. After adding staining reagent (40 μL) containing anti-CD63-CD203c-PE-DY647 and anti-CCR3-PE, each tube was mixed gently and incubated for 15 minutes at 37° C. Lysing reagent (2 mL) was added to each tube, mixed gently, incubated for 5-10 minutes at room temperature, and centrifuged for 5 minutes at 500×g. The supernatant was discarded and the cells were re-suspended in wash buffer (900 μL) and analyzed using flow cytometry. CD63-CD203c-PE-DY647+/CCR3-PE+ cell population considered as the activated basophils.

Compound | affinity for PSMA (in words) (PSMA) | fluorescence intensity in the tumor / tumor accumulation [2] | tumor-to-background ratio (TBR), in words [2] | Kd (PSMA) [nM] | other results
CC1(C)C(/C=C/C2=C(Oc3ccc(C[C@H](NC(=O)[C@H](CCCNC(=N)N)NC(=O)[C@H](CCCNC(=N)N)NC(=O)CCCCCCCNC(=O)CC[C@H](NC(=O)N[C@@H](CCC(=O)O)C(=O)O)C(=O)O)C(=O)O)cc3)C(=C/C=C3/N(CCCCS(=O)(=O)O)c4ccc(S(=O)(=O)O)cc4C3(C)C)/CCC2)=[N+](CCCCS(=O)(=O)[O-])c2ccc(S(=O)(=O)O)cc21 [Compound 39] |  |  |  |  | whole-body imaging [1]: very good whole-body imaging
CC1(C)C(/C=C/C2=C(Oc3ccc(C[C@H](NC(=O)[C@H](CCCNC(=N)N)NC(=O)[C@H](Cc4ccccc4)NC(=O)CCCCCCCNC(=O)CC[C@H](NC(=O)N[C@@H](CCC(=O)O)C(=O)O)C(=O)O)C(=O)O)cc3)C(=C/C=C3/N(CCCCS(=O)(=O)O)c4ccc(S(=O)(=O)O)cc4C3(C)C)/CCC2)=[N+](CCCCS(=O)(=O)[O-])c2ccc(S(=O)(=O)O)cc21 [Compound 41] | very high affinity |  |  |  | whole-body imaging [1]: very good whole-body imaging
CC1(C)C(/C=C/C2=C(Oc3ccc(C[C@H](NC(=O)CCCCCCCNC(=O)CC[C@H](NC(=O)N[C@@H](CCC(=O)O)C(=O)O)C(=O)O)C(=O)O)cc3)C(=C/C=C3/N(CCCCS(=O)(=O)O)c4ccc(S(=O)(=O)O)cc4C3(C)C)/CCC2)=[N+](CCCCS(=O)(=O)[O-])c2ccc(S(=O)(=O)O)cc21 [Compound 4, DUPA-EAOA-Tyr-S0456] | very high affinity | higher fluorescence intensity | best | 15.2 | 
CC1(C)C(=CC=C2CCCC(C=CC3=[N+](CCCCS(=O)(=O)[O-])c4ccc(S(=O)(=O)O)cc4C3(C)C)=C2Oc2ccc(CC(NC(=O)CC(NC(=O)C(Cc3ccccc3)NC(=O)C(Cc3ccccc3)NC(=O)CCCCCCCNC(=O)CCC(NC(=O)NC(CCC(=O)O)C(=O)O)C(=O)O)C(=O)O)C(=O)O)cc2)N(CCCCS(=O)(=O)O)c2ccc(S(=O)(=O)O)cc21 (centres unmarked) [Compound 49] | low binding affinity | very high tumor accumulation (high fluorescence intensity) | good |  | 
CSCC[C@H](NC=O)C(=O)N[C@@H](CC(C)C)C(=O)N[C@@H](Cc1ccccc1)C(=O)O [fMLP, N-formylmethionyl-leucyl-phenylalanine] |  |  |  |  | positive response (% activated basophils) (basophils; FIG. 47E): 73.5%; stimulated index (basophils; FIG. 47E, ≥2 considered positive response): 29.5; Percent of basophile activation, Avg (basophils; average of 3 healthy subjects): 60%; Percent of basophile activation, Subject 1 (basophils; healthy subjects, OTL78 75 μM): 73.5%; Percent of basophile activation, Subject 2 (basophils; healthy subjects, OTL78 75 μM): 55.9%; Percent of basophile activation, Subject 3 (basophils; healthy subjects, OTL78 75 μM): 50.6%; SI = Avg/background (basophils; stimulation index, ≥2 considered positive response): 23.1
CC1(C)C(/C=C/C2=C(Oc3ccc(C[C@H](NC(=O)CCCCCCCNC(=O)[C@H](Cc4ccccc4)NC(=O)[C@H](Cc4ccccc4)NC(=O)C[C@H](NC(=O)CC[C@H](NC(=O)N[C@@H](CCC(=O)O)C(=O)O)C(=O)O)C(=O)O)C(=O)O)cc3)C(=C/C=C3/N(CCCCS(=O)(=O)O)c4ccc(S(=O)(=O)O)cc4C3(C)C)/CCC2)=[N+](CCCCS(=O)(=O)[O-])c2ccc(S(=O)(=O)O)cc21 [Compound 7] |  | lower | third best | 26.8 | 
CC1(C)C(/C=C/C2=C(Oc3ccc(C[C@H](NC(=O)CCCCCCCNC(=O)[C@H](Cc4ccccc4)NC(=O)[C@H](Cc4ccccc4)NC(=O)CC[C@H](NC(=O)N[C@@H](CCC(=O)O)C(=O)O)C(=O)O)C(=O)O)cc3)C(=C/C=C3/N(CCCCS(=O)(=O)O)c4ccc(S(=O)(=O)O)cc4C3(C)C)/CCC2)=[N+](CCCCS(=O)(=O)[O-])c2ccc(S(=O)(=O)O)cc21 [Compound 6] |  | lower | second | 35.7 | 
